In patent US20250312327A1, “COMPOSITION FOR COMBINATION THERAPY, COMPRISING 2,3,5-SUBSTITUTED THIOPHENE COMPOUND” (PHAROS IBIO CO., LTD, priority 2021, published 2025):
Like-named read-outs stand apart in the source and are kept apart here.

Key:
Type in all cases: cell-based
BDCM leukemia cell line [1] = test: CellTiter-Glo assay, drug administered alone; details: 72 h, venetoclax alone
Procedure: (§1) The first and second tests were performed in triplicate on the above cell lines while reducing the concentration of venetoclax by half each time from 100 μM, and the third test was performed in triplicate on the BDCM cell line while reducing the concentration of venetoclax by half each time from 100 μM, and performed in triplicate on HL-60, MolM13, MolM14, and MV4-11 cell lines while reducing the concentration of venetoclax by half each time from 2.5 μM. The fourth test was performed in triplicate on HL-60, MolM13, MolM14, and MV4-11 cell lines while reducing the concentration by half each time from 2.5 μM.
(§2) Specifically, in the first and second tests, a 10-fold diluted solution was prepared by dissolving 50 μL of 10 mM venetoclax in 450 μL of solvent. 250 μL of the solution was serially diluted ½, an 8E-tube was filled with 250 μL of each dilution, and 80 μL of each cell line was dispensed into each well of a 96-well plate. Thereafter, 10 μL of each cell line was dispensed using JANUS and incubated for 72 hours under CO2. Celltiter-Glo assay was performed and then IC50 was calculated.
(§3) In the third test, for the BCDM cell line, a 10-fold diluted solution was prepared by dissolving 15 μL of 10 mM venetoclax in 135 μL of solvent. 100 μL of the solution was serially diluted ½, an 8E-tube was filled with 100 μL of each dilution, and the cell line was dispensed into a 96-well plate. Thereafter, 25 μL of the cell line was dispensed using JANUS and incubated for 72 hours under CO2. Celltiter-Glo assay was performed and then IC50 was calculated. Meanwhile, for the HL-60, MolM13, MolM14, and MV4-11 cell lines, a 10-fold diluted solution was prepared by dissolving […] of solvent. 200 μL of the solution was serially diluted ½, an 8E-tube was filled with 200 μL of each dilution, and each of the cell lines was dispensed into a 96-well plate. Thereafter, 60 μL of each cell line was dispensed using JANUS and incubated for 72 hours under CO2. Celltiter-Glo assay was performed and then IC50 was calculated.
(§4) The first and second tests were performed in triplicate on the above cell lines while reducing the concentration of 5-azacytidine by half each time from 100 μM. Specifically, in the first and second tests, a 10-fold diluted solution was prepared by dissolving 15 μL of 20 mM 5-azacytidine in 285 μL of solvent. 250 μL of the solution was serially diluted ½, an 8E-tube was filled with 250 μL of each dilution, and 80 μL of each cell line (3,000 cells) was dispensed into each well of a 96-well plate. Thereafter, 10 μL of each cell line was dispensed using JANUS and incubated for 72 hours under CO2. Celltiter-Glo assay was performed and then IC50 was calculated.
as §4, with “cytarabine” for “5-azacytidine”, “50,000” for “100”, “10” for “15”, “50” for “20”, “490” for “285”

HL-60 leukemia cell line [2] = test: CellTiter-Glo assay, drug administered alone; details: Homo sapiens
BDCM leukemia cell line [3] = test: CellTiter-Glo assay, drug administered alone
THP-1 leukemia cell line [4] = test: CellTiter-Glo assay, drug administered alone; details: Homo sapiens, THP-1, 72 h, venetoclax alone
Procedure: as §1, §2, §4
as §4, with “cytarabine” for “5-azacytidine”, “50,000” for “100”, “10” for “15”, “50” for “20”, “490” for “285”

U937 leukemia cell line [5] = test: CellTiter-Glo assay, drug administered alone; details: Homo sapiens, U-937, 72 h, venetoclax alone
Procedure: as §1, §2, §4
as §4, with “cytarabine” for “5-azacytidine”, “50,000” for “100”, “10” for “15”, “50” for “20”, “490” for “285”

THP-1 leukemia cell line [6] = test: CellTiter-Glo assay, drug administered alone; details: Homo sapiens
[7] = tested on: MolM13 leukemia cell line; test: CellTiter-Glo assay, drug administered alone; details: Homo sapiens
Procedure: as §1, §2, §3
(§5) The fourth test was performed on HL-60, MolM13, MolM14, and MV4-11 cell lines in the same manner as the third test.
as §4
as §4, with “cytarabine” for “5-azacytidine”, “50,000” for “100”, “10” for “15”, “50” for “20”, “490” for “285”

HL-60 leukemia cell line [8] = test: CellTiter-Glo assay, drug administered alone; details: Homo sapiens; remark: listed apart in the source
Procedure: as §1, §2, §3, §5, §4
as §4, with “cytarabine” for “5-azacytidine”, “50,000” for “100”, “10” for “15”, “50” for “20”, “490” for “285”

[9] = tested on: MV4-11 leukemia cell line; test: CellTiter-Glo assay, drug administered alone; details: Homo sapiens
Procedure: as §1, §2, §3, §5, §4
as §4, with “cytarabine” for “5-azacytidine”, “50,000” for “100”, “10” for “15”, “50” for “20”, “490” for “285”

[10] = tested on: MolM14 leukemia cell line; test: CellTiter-Glo assay, drug administered alone; details: Homo sapiens
Procedure: as §1, §2, §3, §5, §4
as §4, with “cytarabine” for “5-azacytidine”, “50,000” for “100”, “10” for “15”, “50” for “20”, “490” for “285”

U937 leukemia cell line [11] = test: CellTiter-Glo assay, drug administered alone; details: Homo sapiens
HL-60 leukemia cell line [12] = test: CellTiter-Glo assay, co-administration of PHI-101 and anticancer drug; details: PHI-101 at the minimum concentration, 5-azacytidine co-administration test
Procedure: (§6) Specifically, in the first and second tests, a 10-fold diluted solution was prepared by dissolving […] of solvent. 500 μL of the solution was serially diluted ½, an 8E-tube was filled with 500 μL of each dilution, and 90 μL of each cell line was dispensed into each well of a 96-well plate. Thereafter, 10 μL of each cell line was dispensed using JANUS and pretreated for 30 minutes under CO2. […] Next, the cells were incubated for 72 hours under CO2, Celltiter-Glo assay was performed and then IC50 was calculated.
(§7) In the third and fourth tests, a 10-fold diluted solution was prepared by dissolving 5 μL of 50 mM PHI-101 in 495 μL of solvent. 250 μL of the solution was serially diluted ½, an 8E-tube was filled with 250 μL of each dilution, and 60 μL of each cell line was dispensed into each well of a 96-well plate. Thereafter, 10 μL of each cell line was dispensed using JANUS and pretreated for 30 minutes under CO2. […] Next, the cells were incubated for 72 hours under CO2, Celltiter-Glo assay was performed and then IC50 was calculated.
(§8) Specifically, in the first and second tests, for BDCM, HL-60, THP-1, and U937 cell lines, a 10-fold diluted solution was prepared by dissolving 5 μL of 50 mM PHI-101 in 495 μL of solvent. […] Next, the cells were incubated for 72 hours under CO2, Celltiter-Glo assay was performed and then IC50 was calculated.

U937 leukemia cell line [13] = test: as above; details: PHI-101 at the minimum concentration, 5-azacytidine co-administration test
Procedure: as §6, §7, §8

[14] = tested on: MolM14 leukemia cell line; test: CellTiter-Glo assay, drug administered alone; details: Homo sapiens, MOLM-14, PHI-101 administered alone
[15] = tested on: MV4-11 leukemia cell line; test: CellTiter-Glo assay, drug administered alone; details: Homo sapiens, PHI-101 administered alone, Table 7
[16] = venetoclax administered alone, Table 7, read-out: IC50 Venetoclax

CC1(C)CCC(CN2CCN(c3ccc(C(=O)NS(=O)(=O)c4ccc(NCC5CCOCC5)c([N+](=O)[O-])c4)c(Oc4cnc5[nH]ccc5c4)c3)CC2)=C(c2ccc(Cl)cc2)C1 [Venetoclax] was tested, and the IC50 (BDCM leukemia cell line [1]; read-out: IC50 First test) was 12.2 µM, the IC50 (BDCM leukemia cell line [1]; read-out: IC50 Second test) was 9.86 µM and the IC50 (BDCM leukemia cell line [1]; read-out: IC50 Third test) was 12.8 µM. The IC50 (HL-60 leukemia cell line [2]; HL-60, venetoclax administered alone, Table 7, read-out: IC50 Venetoclax) was 0.275 µM, the IC50 (BDCM leukemia cell line [3]; [16]) was 11 µM and the IC50 (THP-1 leukemia cell line [4]; read-out: IC50 First test) was 12.5 µM. The IC50 (THP-1 leukemia cell line [4]; read-out: IC50 Second test) was 12.5 µM, the IC50 (U937 leukemia cell line [5]; read-out: IC50 First test) was 7.31 µM and the IC50 (U937 leukemia cell line [5]; read-out: IC50 Second test) was 8.32 µM. For the same compound, the IC50 (THP-1 leukemia cell line [6]; THP-1, venetoclax administered alone, Table 7, read-out: IC50 Venetoclax) was 12.5 µM, the IC50 ([7]; MOLM-13, venetoclax alone, MolM13, 72 hours, read-out: IC50 First test) was 0.0018 µM and the IC50 ([7]; MOLM-13, venetoclax alone, MolM13, 72 hours, read-out: IC50 Fourth test) was 0.0103 µM. The IC50 ([7]; MOLM-13, venetoclax alone, MolM13, 72 hours, read-out: IC50 Second test) was 0.0125 µM, the IC50 ([7]; MOLM-13, venetoclax alone, MolM13, 72 hours, read-out: IC50 Third test) was 0.0086 µM and the IC50 ([7]; MOLM-13, venetoclax alone, MolM13, read-out: IC50) was ≤ 1 µM. The IC50 ([7]; venetoclax administered alone, MolM 13, Table 7, read-out: IC50 Venetoclax) was 0.0146 µM, the IC50 (HL-60 leukemia cell line [8]; HL-60, 72 h, venetoclax alone, 72 hours, read-out: IC50 First test) was 0.353 µM and the IC50 (HL-60 leukemia cell line [8]; HL-60, 72 h, venetoclax alone, 72 hours, read-out: IC50 Fourth test) was 0.276 µM. The IC50 (HL-60 leukemia cell line [8]; HL-60, 72 h, venetoclax alone, 72 hours, read-out: IC50 Second test) was 0.21 µM, the IC50 (HL-60 leukemia cell line [8]; HL-60, 72 h, venetoclax alone, 72 hours, read-out: IC50 Third test) was 0.283 µM and the IC50 (HL-60 leukemia cell line [8]; HL-60, venetoclax alone, read-out: IC50) was ≤ 1 µM. For the same compound, the IC50 [9, 16] was 0.0137 µM, the IC50 ([9]; venetoclax alone, 72 hours, read-out: IC50 First test) was 0.0068 µM and the IC50 ([9]; venetoclax alone, 72 hours, read-out: IC50 Fourth test) was 0.0141 µM. For the same compound, the IC50 ([9]; venetoclax alone, 72 hours, read-out: IC50 Second test) was 0.0087 µM, the IC50 ([9]; venetoclax alone, 72 hours, read-out: IC50 Third test) was 0.0219 µM and the IC50 ([9]; venetoclax alone, read-out: IC50) was ≤ 1 µM. For the same compound, the IC50 ([10]; MOLM-14, 72 h, venetoclax alone, MolM14, 72 hours, read-out: IC50 First test) was 0.172 µM, the IC50 ([10]; MOLM-14, 72 h, venetoclax alone, MolM14, 72 hours, read-out: IC50 Fourth test) was 0.219 µM and the IC50 ([10]; MOLM-14, 72 h, venetoclax alone, MolM14, 72 hours, read-out: IC50 Second test) was 0.415 µM. For the same compound, the IC50 ([10]; MOLM-14, 72 h, venetoclax alone, MolM14, 72 hours, read-out: IC50 Third test) was 0.147 µM, the IC50 ([10]; MOLM-14, venetoclax administered alone, MolM 14, Table 7, read-out: IC50 Venetoclax) was 0.283 µM and the IC50 ([10]; MOLM-14, venetoclax alone, MolM14, read-out: IC50) was ≤ 1 µM. It also gave an IC50 (U937 leukemia cell line [11]; U-937, venetoclax administered alone, Table 7, read-out: IC50 Venetoclax) of 7.8 µM.

NC(=O)Nc1cc(C#Cc2cccc(F)c2)sc1C(=O)N[C@H]1CCCNC1 [PHI-101, (S)-5-((3-fluorophenyl)ethynyl)-N-(piperidin-3-yl)-3-ureido-thiophene-2-carboxamide] showed an IC50 (HL-60 leukemia cell line [2]; HL-60, PHI-101 administered alone, Table 7, read-out: IC50 PHI-101) of 2.08 µM, an IC50 (HL-60 leukemia cell line [2]; HL-60, PHI-101 administered alone, Table 10, read-out: IC50 PHI-101) of 2.2 µM and an IC50 (HL-60 leukemia cell line [2]; HL-60, PHI-101 administered alone, Table 13, read-out: IC50 PHI-101) of 1.1 µM. For the same compound, the inhibitory activity (HL-60 leukemia cell line [12]) was ≤ 50%, the inhibitory activity (U937 leukemia cell line [13]) was ≤ 50% and the IC50 (BDCM leukemia cell line [3]; PHI-101 administered alone, Table 7, read-out: IC50 PHI-101) was 0.95 µM. The IC50 (BDCM leukemia cell line [3]; PHI-101 administered alone, Table 10, read-out: IC50 PHI-101) was 0.23 µM, the IC50 (BDCM leukemia cell line [3]; PHI-101 administered alone, Table 13, read-out: IC50 PHI-101) was 0.23 µM and the IC50 ([14]; Table 7) was 0.008 µM. The IC50 ([14]; Table 10) was 0.008 µM, the IC50 ([14]; Table 13) was 0.004 µM and the IC50 (THP-1 leukemia cell line [6]; THP-1, PHI-101 administered alone, Table 7, read-out: IC50 PHI-101) was 1.53 µM. For the same compound, the IC50 (THP-1 leukemia cell line [6]; THP-1, PHI-101 administered alone, Table 10, read-out: IC50 PHI-101) was 0.735 µM, the IC50 (THP-1 leukemia cell line [6]; THP-1, PHI-101 administered alone, Table 13, read-out: IC50 PHI-101) was 0.735 µM and the IC50 ([7]; PHI-101 administered alone, MolM 13, Table 7, read-out: IC50 PHI-101) was 0.001 µM. The IC50 (U937 leukemia cell line [11]; U-937, PHI-101 administered alone, Table 7, read-out: IC50 PHI-101) was 1.25 µM, the IC50 (U937 leukemia cell line [11]; U-937, PHI-101 administered alone, Table 10, read-out: IC50 PHI-101) was 3.4 µM and the IC50 (U937 leukemia cell line [11]; U-937, PHI-101 administered alone, Table 13, read-out: IC50 PHI-101) was 0.85 µM. For the same compound, the IC50 [15] was 0.001 µM.
